Assay results as given in article doi:10.1101/2023.03.24.534094v2 (biorxiv, 2023).
Like-named read-outs stand apart in the source and are kept apart here. One block for each compound: values may come before it.

How the values were obtained:
Experiment in all cases: biochemical
CASK = target: T1, CASK (Homo sapiens, UniProt O14936)
T1 sequence (O14936 1-926): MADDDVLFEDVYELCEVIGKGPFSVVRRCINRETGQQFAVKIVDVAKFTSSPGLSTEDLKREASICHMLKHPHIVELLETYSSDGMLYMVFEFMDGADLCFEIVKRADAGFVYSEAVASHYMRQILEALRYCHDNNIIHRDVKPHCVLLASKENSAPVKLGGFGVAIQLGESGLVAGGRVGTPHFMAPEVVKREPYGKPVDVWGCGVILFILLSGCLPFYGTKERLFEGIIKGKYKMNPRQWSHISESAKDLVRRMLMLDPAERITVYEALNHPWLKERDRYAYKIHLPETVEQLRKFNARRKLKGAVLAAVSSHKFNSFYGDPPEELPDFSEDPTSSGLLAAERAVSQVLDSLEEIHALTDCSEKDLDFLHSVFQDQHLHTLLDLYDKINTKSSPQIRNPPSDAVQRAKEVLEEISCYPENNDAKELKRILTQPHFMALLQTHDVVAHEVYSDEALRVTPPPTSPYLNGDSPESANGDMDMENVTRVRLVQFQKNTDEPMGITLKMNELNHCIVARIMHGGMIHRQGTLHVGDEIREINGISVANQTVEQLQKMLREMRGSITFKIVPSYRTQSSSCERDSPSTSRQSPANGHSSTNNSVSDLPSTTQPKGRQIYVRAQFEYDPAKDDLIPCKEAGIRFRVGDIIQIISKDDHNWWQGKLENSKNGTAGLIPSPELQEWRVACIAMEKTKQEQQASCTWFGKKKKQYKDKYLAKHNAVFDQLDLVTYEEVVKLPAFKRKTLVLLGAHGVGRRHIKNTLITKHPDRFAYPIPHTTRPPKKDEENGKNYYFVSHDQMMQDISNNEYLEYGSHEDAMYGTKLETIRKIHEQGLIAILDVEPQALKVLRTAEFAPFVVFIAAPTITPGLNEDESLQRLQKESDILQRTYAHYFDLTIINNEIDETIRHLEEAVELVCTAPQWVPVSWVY

MSK1b = MSK1b (Homo sapiens, UniProt O75582)
Chain of MSK1b (O75582 whole entry): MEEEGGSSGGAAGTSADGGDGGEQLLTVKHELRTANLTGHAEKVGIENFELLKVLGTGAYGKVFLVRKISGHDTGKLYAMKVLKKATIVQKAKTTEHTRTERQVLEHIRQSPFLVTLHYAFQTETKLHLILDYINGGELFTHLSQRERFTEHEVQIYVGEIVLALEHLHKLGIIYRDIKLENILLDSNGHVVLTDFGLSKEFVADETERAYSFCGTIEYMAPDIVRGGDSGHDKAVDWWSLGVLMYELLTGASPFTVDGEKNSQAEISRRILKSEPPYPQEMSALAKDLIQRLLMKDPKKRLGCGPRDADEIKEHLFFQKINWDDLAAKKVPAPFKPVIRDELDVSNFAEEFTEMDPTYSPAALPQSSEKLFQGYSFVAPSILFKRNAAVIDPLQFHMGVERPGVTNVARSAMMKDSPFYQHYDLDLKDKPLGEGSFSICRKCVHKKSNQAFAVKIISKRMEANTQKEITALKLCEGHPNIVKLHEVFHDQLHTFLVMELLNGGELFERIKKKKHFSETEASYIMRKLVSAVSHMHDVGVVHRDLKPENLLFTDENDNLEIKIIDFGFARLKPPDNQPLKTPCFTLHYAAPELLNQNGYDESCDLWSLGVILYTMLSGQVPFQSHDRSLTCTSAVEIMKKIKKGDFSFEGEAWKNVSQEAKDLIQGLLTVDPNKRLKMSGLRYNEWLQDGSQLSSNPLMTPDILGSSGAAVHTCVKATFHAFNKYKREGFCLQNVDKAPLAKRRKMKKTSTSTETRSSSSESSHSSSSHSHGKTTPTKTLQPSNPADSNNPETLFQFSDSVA

CK2a1 = CK2a1 (Homo sapiens, UniProt P68400)
DRAK1 = target: T2, DRAK1 (Homo sapiens, UniProt Q9UEE5)
T2 sequence (Q9UEE5 1-414): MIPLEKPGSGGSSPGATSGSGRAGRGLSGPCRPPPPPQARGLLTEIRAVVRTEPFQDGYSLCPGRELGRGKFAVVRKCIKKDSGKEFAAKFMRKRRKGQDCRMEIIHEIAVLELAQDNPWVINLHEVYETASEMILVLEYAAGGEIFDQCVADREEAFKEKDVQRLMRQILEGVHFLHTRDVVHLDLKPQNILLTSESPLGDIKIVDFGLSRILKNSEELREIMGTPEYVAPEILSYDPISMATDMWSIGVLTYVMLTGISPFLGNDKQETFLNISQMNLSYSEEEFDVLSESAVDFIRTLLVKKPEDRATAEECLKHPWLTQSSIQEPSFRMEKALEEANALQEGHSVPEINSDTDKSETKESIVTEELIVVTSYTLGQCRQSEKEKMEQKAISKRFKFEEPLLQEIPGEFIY

NDR2 = NDR2 (Homo sapiens, UniProt Q9Y2H1)
Chain of NDR2 (Q9Y2H1 whole entry): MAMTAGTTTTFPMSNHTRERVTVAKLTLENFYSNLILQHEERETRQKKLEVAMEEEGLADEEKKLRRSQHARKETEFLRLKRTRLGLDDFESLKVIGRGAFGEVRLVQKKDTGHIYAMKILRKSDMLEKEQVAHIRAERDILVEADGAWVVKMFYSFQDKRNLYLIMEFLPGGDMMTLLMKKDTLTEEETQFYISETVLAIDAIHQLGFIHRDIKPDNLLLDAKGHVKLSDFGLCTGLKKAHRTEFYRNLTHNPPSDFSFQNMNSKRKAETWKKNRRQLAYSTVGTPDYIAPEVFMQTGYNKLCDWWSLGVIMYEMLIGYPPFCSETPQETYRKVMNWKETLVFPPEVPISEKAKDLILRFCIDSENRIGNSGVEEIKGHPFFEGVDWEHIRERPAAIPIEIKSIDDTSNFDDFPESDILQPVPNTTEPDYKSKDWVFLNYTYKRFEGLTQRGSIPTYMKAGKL

TAF1 = TAF1 (Homo sapiens, UniProt P21675)
Chain of TAF1 (P21675 whole entry): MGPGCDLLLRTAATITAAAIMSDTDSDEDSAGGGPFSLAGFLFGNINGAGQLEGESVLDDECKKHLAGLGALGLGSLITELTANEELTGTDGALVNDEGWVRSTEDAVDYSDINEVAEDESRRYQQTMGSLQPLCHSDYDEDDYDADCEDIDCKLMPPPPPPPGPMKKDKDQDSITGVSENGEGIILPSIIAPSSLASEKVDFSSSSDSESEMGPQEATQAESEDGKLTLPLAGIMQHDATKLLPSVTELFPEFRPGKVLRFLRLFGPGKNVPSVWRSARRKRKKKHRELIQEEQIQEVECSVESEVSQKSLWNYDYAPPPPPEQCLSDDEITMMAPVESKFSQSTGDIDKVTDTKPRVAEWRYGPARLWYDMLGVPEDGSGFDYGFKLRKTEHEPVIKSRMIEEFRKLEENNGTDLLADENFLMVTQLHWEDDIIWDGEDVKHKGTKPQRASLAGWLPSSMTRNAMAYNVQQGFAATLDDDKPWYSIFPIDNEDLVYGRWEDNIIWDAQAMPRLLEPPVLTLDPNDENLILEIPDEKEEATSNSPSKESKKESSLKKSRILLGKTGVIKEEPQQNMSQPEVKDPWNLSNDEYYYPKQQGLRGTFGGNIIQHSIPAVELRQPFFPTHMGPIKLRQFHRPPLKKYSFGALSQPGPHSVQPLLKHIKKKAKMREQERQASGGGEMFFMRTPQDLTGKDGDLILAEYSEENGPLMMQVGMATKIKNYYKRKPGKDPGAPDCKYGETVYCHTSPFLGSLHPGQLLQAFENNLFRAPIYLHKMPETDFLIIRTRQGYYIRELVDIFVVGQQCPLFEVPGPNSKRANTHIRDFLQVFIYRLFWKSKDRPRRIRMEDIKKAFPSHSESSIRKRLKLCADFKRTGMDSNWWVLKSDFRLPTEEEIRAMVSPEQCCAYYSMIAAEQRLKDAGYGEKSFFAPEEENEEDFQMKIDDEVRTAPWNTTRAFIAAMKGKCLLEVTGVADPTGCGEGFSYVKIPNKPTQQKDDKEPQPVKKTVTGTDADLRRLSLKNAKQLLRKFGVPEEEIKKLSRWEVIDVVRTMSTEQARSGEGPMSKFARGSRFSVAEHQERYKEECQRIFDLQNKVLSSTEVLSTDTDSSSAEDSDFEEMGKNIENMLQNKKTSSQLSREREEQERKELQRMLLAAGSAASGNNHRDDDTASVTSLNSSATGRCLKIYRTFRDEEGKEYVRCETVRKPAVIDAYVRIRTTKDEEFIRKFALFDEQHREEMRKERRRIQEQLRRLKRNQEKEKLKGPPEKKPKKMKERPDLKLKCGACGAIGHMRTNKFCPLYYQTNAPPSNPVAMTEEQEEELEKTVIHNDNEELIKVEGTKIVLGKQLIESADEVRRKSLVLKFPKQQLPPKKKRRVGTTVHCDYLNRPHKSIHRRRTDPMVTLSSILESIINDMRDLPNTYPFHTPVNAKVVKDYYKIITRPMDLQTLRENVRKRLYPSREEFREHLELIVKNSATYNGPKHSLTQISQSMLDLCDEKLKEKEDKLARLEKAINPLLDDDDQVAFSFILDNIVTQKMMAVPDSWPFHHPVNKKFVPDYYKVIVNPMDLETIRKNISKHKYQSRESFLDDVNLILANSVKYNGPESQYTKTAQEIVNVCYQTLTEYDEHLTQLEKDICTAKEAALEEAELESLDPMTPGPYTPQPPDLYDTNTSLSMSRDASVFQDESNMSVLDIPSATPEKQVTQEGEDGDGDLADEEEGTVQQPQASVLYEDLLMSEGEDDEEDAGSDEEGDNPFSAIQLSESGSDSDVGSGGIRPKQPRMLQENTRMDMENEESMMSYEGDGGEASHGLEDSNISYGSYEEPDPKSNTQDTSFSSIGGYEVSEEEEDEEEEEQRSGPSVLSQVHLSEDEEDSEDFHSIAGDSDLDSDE

GSK3B = GSK3B (Homo sapiens, UniProt P49841)
Chain of GSK3B (P49841 whole entry): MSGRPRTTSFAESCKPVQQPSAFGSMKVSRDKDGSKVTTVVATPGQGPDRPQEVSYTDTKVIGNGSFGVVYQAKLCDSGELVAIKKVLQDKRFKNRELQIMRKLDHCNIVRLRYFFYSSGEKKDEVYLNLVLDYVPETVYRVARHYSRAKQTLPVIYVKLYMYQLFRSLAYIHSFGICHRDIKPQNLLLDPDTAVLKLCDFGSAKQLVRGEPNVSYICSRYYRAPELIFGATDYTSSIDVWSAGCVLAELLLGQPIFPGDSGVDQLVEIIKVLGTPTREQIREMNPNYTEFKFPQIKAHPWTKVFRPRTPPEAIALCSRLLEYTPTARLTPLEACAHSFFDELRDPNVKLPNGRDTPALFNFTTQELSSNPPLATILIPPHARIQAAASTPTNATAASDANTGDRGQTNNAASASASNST

Erk7 = target: T3, Erk7 (Homo sapiens, UniProt Q8TD08)
T3 sequence (Q8TD08 1-544): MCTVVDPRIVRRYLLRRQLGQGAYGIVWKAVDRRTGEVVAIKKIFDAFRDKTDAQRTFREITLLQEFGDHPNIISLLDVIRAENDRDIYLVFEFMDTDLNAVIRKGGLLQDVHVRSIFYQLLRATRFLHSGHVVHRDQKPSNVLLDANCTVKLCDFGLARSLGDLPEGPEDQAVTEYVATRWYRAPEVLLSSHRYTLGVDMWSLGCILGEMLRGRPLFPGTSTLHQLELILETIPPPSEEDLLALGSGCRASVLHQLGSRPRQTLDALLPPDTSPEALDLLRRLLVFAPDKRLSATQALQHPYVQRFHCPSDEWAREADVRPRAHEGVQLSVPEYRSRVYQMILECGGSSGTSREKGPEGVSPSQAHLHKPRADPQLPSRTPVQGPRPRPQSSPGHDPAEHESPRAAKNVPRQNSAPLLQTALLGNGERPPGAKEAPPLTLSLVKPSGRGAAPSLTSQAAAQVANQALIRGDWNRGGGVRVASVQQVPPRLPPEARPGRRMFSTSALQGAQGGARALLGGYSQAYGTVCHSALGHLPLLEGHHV

MARK3 = MARK3 (Homo sapiens, UniProt P27448)
MELK = MELK (Homo sapiens, UniProt Q14680)
Chain of MELK (Q14680 whole entry): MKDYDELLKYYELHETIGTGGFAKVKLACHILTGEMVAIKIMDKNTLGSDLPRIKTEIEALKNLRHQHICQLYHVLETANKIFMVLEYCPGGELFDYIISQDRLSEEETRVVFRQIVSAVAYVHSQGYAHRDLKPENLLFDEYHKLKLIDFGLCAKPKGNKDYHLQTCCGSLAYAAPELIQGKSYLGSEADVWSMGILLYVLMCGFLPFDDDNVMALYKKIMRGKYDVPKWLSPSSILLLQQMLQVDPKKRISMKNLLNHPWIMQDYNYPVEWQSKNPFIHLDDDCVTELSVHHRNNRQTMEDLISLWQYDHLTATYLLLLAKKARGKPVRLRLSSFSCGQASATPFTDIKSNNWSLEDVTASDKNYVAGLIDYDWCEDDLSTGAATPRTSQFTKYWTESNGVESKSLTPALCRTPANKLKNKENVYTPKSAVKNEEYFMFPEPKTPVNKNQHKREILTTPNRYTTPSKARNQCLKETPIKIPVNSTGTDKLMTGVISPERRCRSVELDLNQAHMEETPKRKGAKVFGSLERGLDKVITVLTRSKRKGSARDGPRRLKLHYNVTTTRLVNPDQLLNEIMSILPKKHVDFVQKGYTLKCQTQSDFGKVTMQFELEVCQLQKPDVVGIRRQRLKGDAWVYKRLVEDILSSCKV

MRCKa = MRCKa (Homo sapiens, UniProt Q5VT25)
CaMK1g = CaMK1g (Homo sapiens, UniProt Q96NX5)
Chain of CaMK1g (Q96NX5 whole entry): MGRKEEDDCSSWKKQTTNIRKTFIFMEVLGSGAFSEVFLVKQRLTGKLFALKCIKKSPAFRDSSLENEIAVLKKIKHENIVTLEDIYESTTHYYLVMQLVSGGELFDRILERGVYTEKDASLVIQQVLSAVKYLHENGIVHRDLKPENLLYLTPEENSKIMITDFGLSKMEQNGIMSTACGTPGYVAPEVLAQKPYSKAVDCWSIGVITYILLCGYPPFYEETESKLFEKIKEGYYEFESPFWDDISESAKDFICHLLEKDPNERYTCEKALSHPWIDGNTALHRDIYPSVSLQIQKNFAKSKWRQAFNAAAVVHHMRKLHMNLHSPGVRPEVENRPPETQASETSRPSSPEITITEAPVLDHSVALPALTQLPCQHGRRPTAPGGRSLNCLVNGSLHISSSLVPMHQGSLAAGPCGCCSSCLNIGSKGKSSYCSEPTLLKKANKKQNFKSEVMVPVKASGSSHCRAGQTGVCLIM

PIM3 = PIM3 (Homo sapiens, UniProt Q86V86)

ΔTm at 10 µM (CASK; read-out: dTm 6): -0.3 °C
ΔTm at 10 µM (MSK1b; read-out: dTm 6): 0.3 °C
ΔTm at 10 µM (CK2a1; read-out: dTm 6): 0.2 °C
ΔTm at 10 µM (DRAK1; read-out: dTm 6): -0.1 °C
ΔTm at 10 µM (NDR2; read-out: dTm 6): 0.7 °C
ΔTm at 10 µM (TAF1; read-out: dTm 6): -0.6 °C
ΔTm at 10 µM (GSK3B; read-out: dTm 6): 1 °C
ΔTm at 10 µM (MARK3; read-out: dTm 6): 3.5 °C
ΔTm at 10 µM (MRCKa; read-out: dTm 6): 0.5 °C
ΔTm at 10 µM (CaMK1g; read-out: dTm 6): 1.2 °C
ΔTm at 10 µM (PIM3; read-out: dTm 6): -0.4 °C
Compound: CNc1ncc2cc(-c3cc(Br)ccc3Cl)c(=O)n(CCCCN)c2n1 [compound 6, 8-(4-Aminobutyl)-6-(5-bromo-2-chlorophenyl)-2-(methylamino)pyrido[2,3-d]pyrimidin-7(8H)-one]
ΔTm at 10 µM (Erk7; read-out: dTm 6): 0.3 °C

ΔTm at 10 µM (CASK; read-out: dTm MR21 (4)): 0 °C
ΔTm at 10 µM (MSK1b; read-out: dTm MR21 (4)): 2.1 °C
ΔTm at 10 µM (CK2a1; read-out: dTm MR21 (4)): -0.4 °C
ΔTm at 10 µM (DRAK1; read-out: dTm MR21 (4)): 0.1 °C
ΔTm at 10 µM (NDR2; read-out: dTm MR21 (4)): 0.5 °C
ΔTm at 10 µM (TAF1; read-out: dTm MR21 (4)): -0.1 °C
ΔTm at 10 µM (GSK3B; read-out: dTm MR21 (4)): 2.7 °C
ΔTm at 10 µM (MARK3; read-out: dTm MR21 (4)): 5.3 °C
ΔTm at 10 µM (MELK; read-out: dTm MR21 (4)): 5.7 °C
ΔTm at 10 µM (MRCKa; read-out: dTm MR21 (4)): 0.2 °C
ΔTm at 10 µM (CaMK1g; read-out: dTm MR21 (4)): -0.1 °C
ΔTm at 10 µM (PIM3; read-out: dTm MR21 (4)): -0.8 °C
Compound: CNc1ncc2cc(-c3ccccc3Cl)c(=O)n(CCCCN)c2n1 [compound 4, 8-(4-Aminobutyl)-6-(2-chlorophenyl)-2-(methylamino)pyrido[2,3-d]pyrimidin-7(8H)-one]
ΔTm at 10 µM (Erk7; read-out: dTm MR21 (4)): 0.8 °C

The remaining lines, values behind:

Compound: CNc1ncc2cc(-c3cc(Br)ccc3Cl)c(=O)n(C[C@H]3OC[C@H](N)CO3)c2n1 [compound 7, 8-(((2r,5r)-5-Amino-1,3-dioxan-2-yl)methyl)-6-(5-bromo-2-chlorophenyl)-2-(methylamino)pyrido[2,3-d]pyrimidin-7(8H)-one]
ΔTm at 10 µM (CASK; read-out: dTm 7): -0.1 °C
ΔTm at 10 µM (MSK1b; read-out: dTm 7): 1.1 °C
ΔTm at 10 µM (CK2a1; read-out: dTm 7): 0.4 °C
ΔTm at 10 µM (DRAK1; read-out: dTm 7): 0.6 °C
ΔTm at 10 µM (NDR2; read-out: dTm 7): -0.1 °C
ΔTm at 10 µM (TAF1; read-out: dTm 7): -0.8 °C
ΔTm at 10 µM (GSK3B; read-out: dTm 7): 0.3 °C
ΔTm at 10 µM (Erk7; read-out: dTm 7): 0.1 °C
ΔTm at 10 µM (MARK3; read-out: dTm 7): 1.7 °C
ΔTm at 10 µM (MELK; read-out: dTm 7): 3.6 °C
ΔTm at 10 µM (MRCKa; read-out: dTm 7): 0.1 °C
ΔTm at 10 µM (CaMK1g; read-out: dTm 7): 0.3 °C
ΔTm at 10 µM (PIM3; read-out: dTm 7): 0.9 °C

Compound: CNc1ncc2cc(-c3ccc(-c4cccc(C)n4)cc3Cl)c(=O)n(CC3OCC(N)CO3)c2n1 (stereo not drawn) [compound 2, G-5555]
dTm G-5555 (2) (CASK; 10 µM, binder): -0.8 °C
dTm G-5555 (2) (MSK1b; 10 µM, binder): 2.0 °C
dTm G-5555 (2) (CK2a1; 10 µM, binder): 0.1 °C
dTm G-5555 (2) (DRAK1; 10 µM, binder): -0.7 °C
dTm G-5555 (2) (NDR2; 10 µM, binder): 3.5 °C
dTm G-5555 (2) (GSK3B; 10 µM, binder): 0.1 °C
dTm G-5555 (2) (Erk7; 10 µM, binder): 0.3 °C
dTm G-5555 (2) (MARK3; 10 µM, binder): 8.8 °C
dTm G-5555 (2) (MELK; 10 µM, binder): 8.4 °C
dTm G-5555 (2) (MRCKa; 10 µM, binder): 0.9 °C
dTm G-5555 (2) (CaMK1g; 10 µM, binder): 2.3 °C
dTm G-5555 (2) (PIM3; 10 µM, binder): -1.8 °C

Compound: CNc1ncc2cc(-c3cc(F)ccc3F)c(=O)n(CCCCN)c2n1 [compound 5, 8-(4-Aminobutyl)-6-(2,5-difluorophenyl)-2-(methylamino)pyrido[2,3-d]pyrimidin-7(8H)-one]
ΔTm at 10 µM (CASK; read-out: dTm MR22 (5)): -0.4 °C
ΔTm at 10 µM (MSK1b; read-out: dTm MR22 (5)): 1.5 °C
ΔTm at 10 µM (CK2a1; read-out: dTm MR22 (5)): 0.4 °C
ΔTm at 10 µM (DRAK1; read-out: dTm MR22 (5)): -0.7 °C
ΔTm at 10 µM (NDR2; read-out: dTm MR22 (5)): 1.6 °C
ΔTm at 10 µM (TAF1; read-out: dTm MR22 (5)): 0.2 °C
ΔTm at 10 µM (GSK3B; read-out: dTm MR22 (5)): 1.6 °C
ΔTm at 10 µM (Erk7; read-out: dTm MR22 (5)): -1.5 °C
ΔTm at 10 µM (MARK3; read-out: dTm MR22 (5)): 1.1 °C
ΔTm at 10 µM (MELK; read-out: dTm MR22 (5)): 3.2 °C
ΔTm at 10 µM (MRCKa; read-out: dTm MR22 (5)): -0.5 °C
ΔTm at 10 µM (CaMK1g; read-out: dTm MR22 (5)): -0.4 °C
ΔTm at 10 µM (PIM3; read-out: dTm MR22 (5)): -0.6 °C
